Measurements: patent US20080194631A1, “Medicament For the Treatment of Central Nervous System Disorders” (priority 2004, published 2008)

How the values were obtained:
C57/BL6J male mice = experiment: Motor and exploratory activity test in open-field (effects of the products on the locomotor activity); type: in vivo; conditions: ifenprodil alone, doses of less than 10 mg/kg
Protocol: (§1) The principle of the behavioral sensitization test is based on the measurement of the locomotor activity. The latter is measured in the open-field test.
Motor and Exploratory Activity Test in Open-Field
(§2) The animals used are 9-week old C57/BL6J male mice at the beginning of the experiment.
(§3) The open-fields used to measure the activity are 4 square chambers made of transparent plexiglas. Each open-field is arranged in a setting equipped with photoelectric cells which make it possible to record the movements of the animal.
The products used have known psychotropic properties. […] Since the principle of the study is based on the measurement of the locomotor activity, it is preferable to have a preliminary evaluation of these effects under the experimental conditions used.
All the products are dissolved in physiological saline (0.9% NaCl) so that the volume for injection is 10 ml/kg of body weight.
IFENPRODIL was tested at the following doses: 1 mg/kg; 3 mg/kg and 10 mg/kg.
The experiments were also performed in order to evaluate the effect of the combination of the products:

[1] = test system: sensitization induced by amphetamine; experiment: Behavioral sensitization protocol (amphetamine), locomotor activity in open-field; type: in vivo, mice; conditions: repeated sessions, amphetamine 2 mg/kg
Protocol: as §1, §2, §3
Groups receive beforehand an administration of one of the products or the combination of both.
During the 1st session, the animals receive NaCl at the 1st and 2nd injection. The experiment is performed over several sessions, 2 to 10 days apart.
The experiments were performed on 5 groups of animals which received the following treatments at each session.

[2] = in vivo; cited from earlier work
[3] = test system: stimulant effects of alcohol; conditions: in vivo; cited from earlier work
alcohol withdrawal = conditions: in vivo; cited from earlier work
[4] = test system: hyperactivity induced by MK801; experiment: Model of locomotor hyperactivity induced by MK801; type: in vivo; conditions: clozapine 1 mg/kg
Protocol: Given the pharmacological profile of the molecules chosen toward the noradrenergic and serotoninergic receptors, an antipsychotic activity was sought. The substances were tested in the model of locomotor hyperactivity induced by MK801. […] In this model and under our experimental conditions, clozapine (1 mg/kg) reduces by 56% the hyperactivity induced by MK 801.
Effect of the combination 1 mg/kg ifenprodil+1 mg/kg cyproheptadine on the locomotor activity induced by MK801 (cm covered, mean +SEM).

| SMILES | effect on locomotion (C57/BL6J male mice) | effect on the development (and expression) of behavioral sensitization to amphetamine [1] | anxiolytic effects [2] | effect on the expression of sensitization (alcohol) [3] | effect on the stimulant effects of alcohol [3] | effect on the physical signs induced by alcohol withdrawal (alcohol withdrawal) | reduction of the hyperactivity induced by MK 801 [4] |
| --- | --- | --- | --- | --- | --- | --- | --- |
| CC(C(O)c1ccc(O)cc1)N1CCC(Cc2ccccc2)CC1 (stereo not shown) [Ifenprodil] | does not have a significant effect | limited effects | anxiolytic effects | does not block | reduces | reduces |  |
| CN1CCN(C2=Nc3cc(Cl)ccc3Nc3ccccc32)CC1 [clozapine] |  |  |  |  |  |  | 56% |
